Measured values: patent publication US8530386B2, “Herbicidal compositions for tolerant or resistant sugar beet crops” (Bayer Intellectual Property GmbH, priority 1998, dated 2013)
Structures can show the parent of a compound that is named as a salt.

Assays:
Format in all cases: in vivo
[1] = tested on: transgenic sugar beet; test: Damage to transgenic sugar beet, field trial (Table 5); settings: application in the 3-5-leaf stage
Protocol: (§1) Transgenic sugar beet plants with resistance to one or more herbicides (A) were grown together with typical weed plants in the open in 2×5 m plots under natural field conditions; alternatively, the weed population established naturally while the sugar beet plants grew. Treatment with the compositions according to the invention and, for control purposes, with separate application of the active ingredients of the components alone, was carried out under standard conditions with a plot sprayer at an application rate of 200-300 liters of water per hectare in parallel trials in accordance with the scheme of Table 1, i.e. pre-sowing/pre-emergence, post-sowing/pre-emergence or post-emergence at the early, medium or late stage.
(§2) At 2, 4, 6 and 8 week intervals after application, the herbicidal activity of the active ingredients or active ingredient mixtures were scored visually by comparing the treated plots with untreated control plots. Damage and development of all aerial plant organs was recorded. The scoring was done using a percentage scale (100% activity=all plants dead, 50% activity=50% of the plants and green plant organs dead, 0% activity=no discernible effect=like control plot). The score values of in each case 4 plots were averaged.
(§3) In contrast, the sugar beet plants suffered no, or only negligible, damage as a consequence of the treatment with the herbicidal compositions.

[2] = tested on: transgenic sugar beet; test: Damage to transgenic sugar beet, greenhouse experiment (Table 3); design: scale not given here; settings: application in the 4-5-leaf stage
[3] = tested on: transgenic sugar beet; test: Damage to transgenic sugar beet, field trial (Table 4); settings: application in 3-leaf stage
Protocol: as §1, §2, §3

[4] = tested on: transgenic sugar beet; test: Damage to transgenic sugar beet - field trial (Table 2); settings: application in 2-4-leaf stage
Protocol: as §1, §2, §3

[5] = tested on: Galium aparine; test: Herbicidal action in sugar beet crop, greenhouse experiment (Table 3); settings: application in the 4-5-leaf stage, scoring 3 weeks after application
Excerpt: Seeds or rhizomes of monocotyledonous and dicotyledonous weeds are placed in sandy loam soil in cardboard pots, covered with soil and grown in the greenhouse under good growth conditions. […] The compositions according to the invention, which are formulated as wettable powders or as emulsion concentrates, are sprayed at various dosages onto the green plant organs at an application rate of 600 to 800 l of water per ha (converted). After the experimental plants have remained in the greenhouse for approx. 3 to 4 weeks under optimal growth conditions, the effect of the preparations is scored visually in comparison with untreated controls. The compositions according to the invention also have a good herbicidal activity against a broad spectrum of economically important grass weeds and broad-leaved weeds when applied post-emergence.
In this context, activities of the combinations according to the invention are frequently observed which exceed the formal total of the activities when the herbicides are applied individually. The observed values show, at suitably low dosages, an activity of the combinations which exceed Colby's expected values (cf. scoring in Example 1).

[6] = tested on: Setaria viridis; test: Herbicidal action, field trial, sequential treatment (Table 8); settings: dose 200 g A.S./ha; post-emergence at the 2-3-leaf stage; scoring 22 days after application
Protocol: as §1
(§4) […] Damage and development of all aerial plant organs was recorded. The scoring was done using a percentage scale (100% activity=all plants dead, 50% activity=50% of the plants and green plant organs dead, 0% activity=no discernible effect=like control plot). The score values of in each case 4 plots were averaged.
as §3

[7] = tested on: Amaranthus retroflexus; test: as above; settings: dose 200 g A.S./ha; post-emergence at the 2-3-leaf stage; scoring 22 days after application
Protocol: as §1, §4, §3

[8] = tested on: Galium aparine; test: Herbicidal action, field trial (Table 6); settings: application in the 3-5-leaf stage, scoring 4 weeks after application
Protocol: as §1, §2, §3

[9] = tested on: Galium aparine; test: Herbicidal action, field trial (Table 7); settings: application in the 4-5-leaf stage, scoring 26 days after application
Protocol: as §1, §4, §3

[10] = tested on: Avena fatua; test: Herbicidal action and selectivity in sugar beet crop, field trial (Table 5); settings: application in the 3-5-leaf stage, scoring 4 weeks after application
Protocol: as §1, §2, §3

SMILES: CP(=O)(O)CCC(N)C(=O)O (centres unmarked) [(A1.2), glufosinate monoammonium salt]
- Damage to transgenic sugar beet ([1]; dose 150 g A.S./ha): 0
- Damage to transgenic sugar beet ([1]; dose 300 g A.S./ha): 0
- Damage to transgenic sugar beet ([1]; dose 600 g A.S./ha): 0
- Damage to transgenic sugar beet ([2]; dose 125 g A.S./ha): 0
- Damage to transgenic sugar beet ([2]; dose 250 g A.S./ha): 0
- Damage to transgenic sugar beet ([2]; dose 500 g A.S./ha): 0
- Damage to transgenic sugar beet ([3]; dose 0 g A.S./ha): 0
- Damage to transgenic sugar beet ([3]; dose 10 g A.S./ha): 0
- Damage to transgenic sugar beet ([3]; dose 65 g A.S./ha): 0
- Damage to transgenic sugar beet ([4]; dose 37.5 g A.S./ha): 0
- Damage to transgenic sugar beet ([4]; dose 75 g A.S./ha): 0
- Damage to transgenic sugar beet ([4]; dose 150 g A.S./ha): 0
- Damage to transgenic sugar beet ([4]; dose 300 g A.S./ha): 0
- Herbicidal action in % against Galium aparine ([5]; dose 125 g A.S./ha): 45%
- Herbicidal action in % against Galium aparine ([5]; dose 250 g A.S./ha): 60%
- Herbicidal action in % against Galium aparine ([5]; dose 500 g A.S./ha): 85%
- Herbicidal action in % against Setaria viridis [6]: 60%
- Herbicidal action in % against Amaranthus retroflexus [7]: 55%
- Herbicidal action in % against Galium aparine ([8]; dose 250 g A.S./ha): 20%
- Herbicidal action in % against Galium aparine ([8]; dose 300 g A.S./ha): 40%
- Herbicidal action in % against Galium aparine ([8]; dose 600 g A.S./ha): 85%

SMILES: CC(C)N.O=C(O)CNCP(=O)(O)O [(A2.2), monoisopropylammonium salt of glyphosate]
- Herbicidal action in % against Galium aparine ([9]; dose 125 g A.S./ha): 10%
- Herbicidal action in % against Galium aparine ([9]; dose 250 g A.S./ha): 40%
- Herbicidal action in % against Galium aparine ([9]; dose 500 g A.S./ha): 60%
- Herbicidal action in % against Galium aparine ([9]; dose 1000 g A.S./ha): 85%

SMILES: O=C(O)c1nc(Cl)ccc1Cl [(B2.4), 3,6-dichloropyridine-2-carboxylic acid]
- Damage to transgenic sugar beet ([2]; dose 50 g A.S./ha): 0
- Damage to transgenic sugar beet ([2]; dose 100 g A.S./ha): 0
- Damage to transgenic sugar beet ([2]; dose 200 g A.S./ha): 0

SMILES: Cc1nnc(-c2ccccc2)c(=O)n1N [(B1.4), 4-amino-4,5-dihydro-3-methyl-6-phenyl-1,2,4-triazin-5-one]
- Damage to transgenic sugar beet ([2]; dose 750 g A.S./ha): 0
- Damage to transgenic sugar beet ([2]; dose 1500 g A.S./ha): 0
- Damage to transgenic sugar beet ([2]; dose 3000 g A.S./ha): 0

SMILES: COC(=O)Nc1cccc(NC(=O)Oc2cccc(C)c2)c1 [(B2.2), 3-methylphenyl N-[3-(methoxycarbonylamino)phenyl]carbamate]
- Damage to transgenic sugar beet ([2]; dose 500 g A.S./ha): 0
- Damage to transgenic sugar beet ([2]; dose 1000 g A.S./ha): 0
- Damage to transgenic sugar beet ([2]; dose 2000 g A.S./ha): 0
- Herbicidal action in % against Galium aparine ([5]; dose 500 g A.S./ha): 20%
- Herbicidal action in % against Galium aparine ([5]; dose 1000 g A.S./ha): 30%
- Herbicidal action in % against Galium aparine ([5]; dose 2000 g A.S./ha): 30%
- Herbicidal action in % against Galium aparine ([9]; dose 500 g A.S./ha): 20%
- Herbicidal action in % against Galium aparine ([9]; dose 1000 g A.S./ha): 30%
- Herbicidal action in % against Galium aparine ([9]; dose 2000 g A.S./ha): 30%

SMILES: CCC/C(=N\OCC)C1=C(O)CC(CC(C)SCC)CC1=O (centres unmarked) [(B4.1), (E,Z)-2-(1-ethoxyiminobutyl)-5-[2-(ethylthio)propyl]-3-hydroxycyclohex-2-enone]
- Damage to transgenic sugar beet ([3]; dose 105 g A.S./ha): 0
- Damage to transgenic sugar beet ([3]; dose 210 g A.S./ha): 0
- Damage to transgenic sugar beet ([3]; dose 315 g A.S./ha): 0

SMILES: CCCC(=NOCC)C1=C(O)CC(C2CCCSC2)CC1=O (centres unmarked) [(B4.2), 2-(1-ethoxyiminobuytl)-3-hydroxy-5-thian-3-ylcyclohex-2-enone]
- Damage to transgenic sugar beet ([3]; dose 62.5 g A.S./ha): 0
- Damage to transgenic sugar beet ([3]; dose 125 g A.S./ha): 0
- Damage to transgenic sugar beet ([3]; dose 250 g A.S./ha): 0

SMILES: CCOC(=O)C(C)Oc1ccc(Oc2nc3ccc(Cl)cc3o2)cc1 (racemic) [(B3.2), fenoxaprop-ethyl (rac.)]
- Damage to transgenic sugar beet ([1]; dose 15 g A.S./ha): 0
- Damage to transgenic sugar beet ([1]; dose 30 g A.S./ha): 0
- Damage to transgenic sugar beet ([1]; dose 60 g A.S./ha): 0

SMILES: COC(=O)[C@@H](C)Oc1ccc(Oc2ncc(C(F)(F)F)cc2Cl)cc1 [(B3.4), haloxyfop-P-methyl]
- Damage to transgenic sugar beet ([1]; dose 15 g A.S./ha): 0
- Damage to transgenic sugar beet ([1]; dose 30 g A.S./ha): 0
- Herbicidal action in % against Avena fatua ([10]; dose 15 g A.S./ha): 20%
- Herbicidal action in % against Avena fatua ([10]; dose 30 g A.S./ha): 63%
